Results published in PubChem BioAssay AID504568 (NMMLSC, 2011).
Activity calls are given as the source filed them.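 Rule for the calls: active = binding readouts below 60% of the midpoint between blocked and unblocked controls, with summed weighted score above 1; inactive = the rest.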

Tested on: 2C TCR mouse CD8+ T cells, vesicle binding, flow cytometry
Experiment: inhibitors of CD8+ T cell LFA-1/ICAM-1 adhesion – powder samples, single concentration, mouse 2C TCR, flow cytometry, confirmation (AID 504568);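 note: lower values mean less vesicle binding and point to an inhibitor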;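 for double-positive events (T cell-vesicle binding): the gate for binding is set so anti-LFA-1 blocked control wells show 10% double positives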
Settings: stronger effect = lower value; for mean fluorescence percent response: measured here: CD8+ cell vesicle fluorescence mean

Compound | double-positive events (T cell-vesicle binding) | mean fluorescence percent response [%]
CCCCOc1ccc(C(=O)NCC(=O)N2CCN(C(=O)c3ccco3)CC2)cc1 | 25.2% | 133
CN(C)S(=O)(=O)c1cccc(-n2sc3ccccc3c2=O)c1 | 17.7% | 109
COc1ccc(Nc2ccccc2N)cc1 | 32.7% (inactive) | 138
CC(=O)c1ccc(-c2csc(N3CCC(C(N)=O)CC3)n2)cc1 | 26.5% (inactive) | 153
CCC1(C)NC(=O)N(CC(=O)N2N=C(c3ccccc3)CC2c2ccc(OC)cc2)C1=O (centres undefined) | 24% (inactive) | 144
O=C(c1ccc(N2C(=O)C3CC=C(Cl)CC3C2=O)cc1)N1CCCCC1 (centres undefined) | 22.8% (inactive) | 130
O=C(NNS(=O)(=O)c1ccc2ccccc2c1)c1cccs1 | 23.5% (inactive) | 149
CC(C)(C)NC(=O)COc1ccc(CNCc2cccnc2)cc1 | 25.7% (inactive) | 148
CN1CCN(S(=O)(=O)c2cccc(C(=O)Nc3cc(C(F)(F)F)ccc3N3CCCCC3)c2)CC1 | 21.7% | 105
COc1ccccc1NS(=O)(=O)c1cc(NC(=O)CNC(=O)c2cc(C)cc(C)c2)ccc1C | 27.3% (inactive) | 153
Cn1c(CNC(=O)CNC(=O)c2ccc(F)cc2)cc(=O)n(C)c1=O | 29.7% (inactive) | 165
CCCc1nnc(NC(=O)c2ccc(S(=O)(=O)N(C)c3ccccc3OC)cc2)s1 | 26.1% (inactive) | 131
O=C(COC(=O)C12CC3CC(CC(Br)(C3)C1)C2)Nc1cccc(S(=O)(=O)N2CCOCC2)c1 | 13.9% | 91.1
COc1ccc(NC(=O)CSCC(=O)Nc2cccc(S(=O)(=O)N3CCCCCC3)c2)cc1 | 21.7% | 136
O=C(CCC(=O)N1CCOCC1)NCc1cccc(C(F)(F)F)c1 | 24.3% (inactive) | 133
CCOC(=O)c1c(N2C(=O)CC(Sc3ccccc3C(=O)O)C2=O)sc2c1CCCC2 (centres undefined) | 9.25% | 59.9
CCOc1ccc(-c2nc(N)ncc2-c2ccccc2)c(O)c1 | 20.9% | 126
Cc1ccc(C(=O)NCCCN2CCOCC2)c(C)c1 | 24.4% | 136
CC(=O)Nc1ccc(S(=O)(=O)NC2CCSc3ccccc32)cc1 (centres undefined) | 23.2% (inactive) | 120
Cc1sc2ncnc(NCC(C)(C)N3CCOCC3)c2c1C | 20.2% | 126
CCN(CC)C(=O)N1CCN(S(=O)(=O)c2ccc(C)cc2)CC1 | 26% (inactive) | 129
COc1ccc(N2CC(C(=O)NC(C)C(=O)NCc3ccccc3OC)CC2=O)cc1 (centres undefined) | 27.3% (inactive) | 177
O=C1CC(c2nc3ccccc3[nH]2)CN1Cc1ccccc1 (centres undefined) | 22.6% | 124

Compound | double-positive events (T cell-vesicle binding) | mean fluorescence percent response [%]
O=C(Cn1cc(C(F)(F)F)cc(Cl)c1=O)NCCc1ccc(Cl)cc1Cl | 26.4% (inactive) | 136
CCOC(=O)c1c(C=O)c2ccccc2n1CC | 20.5% | 148
Cc1cc(Cl)c(OCCCSc2nc(C)cc(=O)[nH]2)c(Br)c1 | 25% | 126
COC(=O)c1ccccc1NC(=O)C1CCN(C(=O)c2cc(OC)cc(OC)c2)CC1 | 29.9% (inactive) | 172
CN1CCN(S(=O)(=O)c2ccc(C(=O)Nc3ccccc3)cc2)CC1 | 26.1% (inactive) | 138
Cc1ccc(N2CC(C(=O)NC3=NCCS3)CC2=O)cc1 (centres undefined) | 21.9% (inactive) | 161
CCC(C(=O)Nc1ccccc1)c1ccccc1 (centres undefined) | 24.6% | 131
COc1cccc(NC(=O)Nc2ccc3nc(C)c(C)nc3c2)c1 | 18.7% | 113
CCOC(=O)c1ccc(NC(=O)CN2C(=O)NC3(CCCCCCC3)C2=O)cc1 | 27.4% | 149
COCc1c(C(=O)Nc2cccc(S(=O)(=O)N3CCCCC3)c2)oc2ccccc12 | 14.8% | 104
Cc1ccc(NC(=O)COC(=O)CCc2c[nH]c3ccccc23)c(C)c1 | 25.1% | 147
Cc1ccc(S(=O)(=O)N2CCN(S(=O)(=O)N(C)C)CC2)c(C)c1 | 24.7% | 139
COc1ccc(/C=C2\SC(=S)N(CCC(=O)N3CCOCC3)C2=O)cc1 | 22.1% | 102
Cc1ncc([N+](=O)[O-])n1Cc1cccc(F)c1 | 28.5% (inactive) | 152
CCN(CC)CCNC(=O)CCCNC(=O)Cn1cnc2sc(C)c(C)c2c1=O | 30.9% (inactive) | 196
O=C(OCCOc1cccc(Cl)c1)c1ccc(F)c(S(=O)(=O)N2CCOCC2)c1 | 25.8% (inactive) | 163
COc1ccc(C2=Nc3cc(C)ccc3OC2)cc1 | 26.7% (inactive) | 140
CCOC(=O)c1ccc(S(=O)(=O)N2CCN(C3CCCC3)CC2)cc1 | 23% (inactive) | 155
COc1ccc([N+](=O)[O-])cc1NC(=O)c1ccc(N(Cc2ccccc2C)S(C)(=O)=O)cc1 | 23% | 105
COc1ccc(C(O)c2coc3ccc(O)c(CN(C)C)c23)cc1 (centres undefined) | 21.7% (inactive) | 162
c1ccc(COc2ccc(OCCN3CCCCC3)cc2)cc1 | 20.7% | 133
COc1ccc(CNC(=O)c2cccnc2SC)cc1OC | 26.7% (inactive) | 163
COc1ccc(NC(=O)CC2C(=O)N(Cc3ccccc3)C(=S)N2CCN2CCOCC2)cc1 (centres undefined) | 28.8% (inactive) | 149

Compound | double-positive events (T cell-vesicle binding) | mean fluorescence percent response [%]
COc1ccccc1CNC(=O)COc1ccc(C)cc1 | 24.8% (inactive) | 173
O=C(CC1=NCCNC(c2ccccc2)C1)c1ccccc1O (centres undefined) | 28% (inactive) | 170
Cc1ccc(S(=O)(=O)N2CCN(C(=O)CNC(=O)c3ccc(Cl)cc3)CC2)cc1 | 29.6% (inactive) | 165
CN(C)S(=O)(=O)c1ccc(C(=O)NCCc2ccco2)cc1 | 22.8% | 122
Cc1ccc(O)c(CCc2ccccc2)n1 | 22.9% | 120
CCN(CC)S(=O)(=O)c1ccc(Cl)c(NC(=O)COC(=O)C2CCCCC2)c1 | 14.5% | 126
COc1ccc(S(=O)(=O)N2CCCC2C(=O)Nc2ccc(C(C)=O)cc2)cc1 (centres undefined) | 26.1% (inactive) | 142
Cc1ccc(Cn2c([N+](=O)[O-])cnc2C)cc1 | 23.1% | 153
O=C(CS(=O)(=O)Cc1ccccc1)N1CCc2ccccc21 | 25.6% (inactive) | 159
COCCCN1CCc2[nH]c(=S)[nH]c(=O)c2C1 | 28% (inactive) | 169
Cc1cccc(NC(=O)C2CCN(S(=O)(=O)c3c(C)[nH]c(=O)[nH]c3=O)CC2)c1 | 27.4% (inactive) | 161
Cc1cc(C)n(C(=O)c2sc3cc(F)ccc3c2Cl)n1 | 24.5% | 90.2
O=C(NCC1CCCCC1)c1ccc(Cl)c(S(=O)(=O)N2CCOCC2)c1 | 17.8% | 136
NC(=O)C1CCN(c2nc(-c3cc4ccccc4o3)cs2)CC1 | 26.2% (inactive) | 140
O=C(NCCC1=CCCCC1)C(=O)NCC(c1ccco1)N1CCN(c2ccccc2F)CC1 (centres undefined) | 26.1% (inactive) | 116
Cc1ccccc1C(=O)NCC(=O)N1CCN(C/C=C/c2ccccc2)CC1 | 21.8% | 150
CCOC(=O)N1CCN(C(=O)c2ccc(CS(=O)Cc3ccc(C)cc3)o2)CC1 (centres undefined) | 26.5% (inactive) | 146
COc1ccc(S(=O)(=O)N2CCCCC2)cc1NC(=O)c1cnc(C)cn1 | 26.7% (inactive) | 173
CCOC(=O)C1CCCN(S(=O)(=O)c2ccc(F)c(C(=O)Nc3ccc(F)c(F)c3)c2)C1 (centres undefined) | 22.4% | 162
O=C(O)C1CCC(Cn2c(SCc3cc(=O)n4cc(Cl)ccc4n3)nc3ccsc3c2=O)CC1 (centres undefined) | 19.5% | 128
CCOCC(=O)Nc1ccc(S(=O)(=O)N2CCC(c3nc4ccccc4[nH]3)CC2)cc1 | 16.4% | 97.1
